Series [1] deals with Odorous House ant, Tapinoma sessile. The experiment in a line: Knockdown/mortality of ant workers under continuous exposure on treated glazed tile. The class given is in vivo. Conditions: Table 35, thiamethoxam/adjuvant in acetone, glazed tile. The source says:
Actual coverage was about 5″×5″ (or 161 cm2) for easy handling. Treatments were allowed to dry overnight. […] Treatments were replicated minimum three times.
Treatments were allowed to dry overnight. […] Treatments were replicated minimum three times.
Treatments were allowed to dry overnight. […] Treatments were replicated a minimum of three times.
Treatments were allowed to dry overnight. […] Treatments were replicated minimum of three times. […] The results are shown in FIG. 84 (No adjuvant alone treatment was performed).

The subject of series [2] is Argentine ant, Linepithema humile. Described as above. As to conditions: Table 34, thiamethoxam/adjuvant in acetone, glazed tile. The procedure:
(§1) Solutions of imidacloprid at 0.5% AI were prepared with and without methyl oleate @0.1, 1.0 and 5.0% in acetone. Treatments were applied using a micropipette to dispense 1 ml of test solution evenly on a 6″×6″ glazed tile. Actual coverage was about 5″×5″ (or 161 cm^2) for easy handling. Treatments were allowed to dry overnight. Ten Argentine ant workers were placed within a fluon or talc-coated PVC ring (φ7.6 cm×H 5.1 cm) under continuous exposure. A small vial filled with a cotton ball soaked in water was added as a drinking source after 3 hours. Treatments were replicated a minimum of three times. Evaluations for ant knockdown/mortality were made at various intervals and at 24 hours after exposure.
as §1, with “MATERIALS AND METHODS: Solutions” for “Solutions”, “linoleate” for “oleate”
as §1, with “MATERIALS AND METHODS: Solutions of” for “Solutions of”, “without methyl palmitate @0.1, 1.0” for “without methyl oleate @0.1, 1.0”, “after exposure. […]” for “after exposure.”

The test system of series [3] is susceptible/normal German cockroach (Monheim strain), Blattella germanica. The experiment in a line: Knockdown/mortality of male cockroaches under continuous exposure on treated glazed tile. As to conditions: Table 36, thiamethoxam/adjuvant in acetone, glazed tile, Monheim strain. Format: in vivo. The procedure:
Treatments were allowed to dry overnight. […] Treatments were replicated a minimum of three times. […]
Treatments were allowed to dry overnight. […] Treatments were replicated a minimum of three times. Cockroach knockdown/mortality was evaluated at 5 minute intervals for the first 60 minutes after exposure and then at 2, 18 and 24 hours.

A further series concerns Aedes aegypti mosquito. Briefly: USDA Petri Dish Method, 3 min exposure to treated glazed tile. Format: in vivo. Conditions: Table 33, thiamethoxam/adjuvant in acetone, glazed tile, 3 min exposure. The procedure:
Treatments were allowed to dry overnight. USDA Petri Dish Method was used as initial screening protocol. Twenty, 4-6 day old female Aedes aegypti mosquitoes were exposed to each treatment for 3 minutes and then moved to a clean untreated white paper index card. Treatments were replicated a minimum of three times. Mosquito knockdown was evaluated at various intervals through 7 hours after exposure. A small cotton ball soaked in sucrose solution was added on the screen top of the petri-dish as a drinking source. Mortality was evaluated at 24 hours after exposure.
MATERIALS AND METHODS: Solutions of resmethrin at 1 and 0.5% AI were prepared with and without adjuvant in acetone. […] USDA Petri Dish Method was used as initial screening protocol. Twenty, 4-6 day old female Aedes aegypti mosquitoes were exposed to each treatment for 3 minutes and then moved to a clean untreated white paper index card. Treatments were replicated a minimum of three times. Mosquito knockdown was evaluated at 3 minute intervals for the first 15 minutes and then at 5 minute intervals for the remainder of an hour. A small cotton ball soaked in sucrose solution was added on the screen top of the petri-dish as a drinking source. Mortality was evaluated at 24 hours after exposure.
Treatments were allowed to dry overnight. USDA Petri Dish Method was used as initial screening protocol. Twenty, 4-6 day old female Aedes aegypti mosquitoes were exposed to each treatment for 3 minutes and then moved to a clean untreated white paper index card. Treatments were replicated a minimum of three times. Mosquito knockdown was evaluated at various intervals through 6 hours after exposure. A small cotton ball soaked in sucrose solution was added on the screen top of the petri-dish as a drinking source. Mortality was evaluated at 24 hours after exposure.
Treatments were allowed to dry overnight. USDA Petri Dish Method was used as initial screening protocol. Twenty, 4-6 day old female Aedes aegypti mosquitoes were exposed to each treatment for 3 minutes and then moved to a clean untreated white paper index card. Treatments were replicated a minimum of three times. Mosquito knockdown was evaluated at 5 minute intervals for the first hour and then at 2, 4 and 6 hours. A small cotton ball soaked in sucrose solution was added on the screen top of the petri-dish as a drinking source. Mortality was evaluated at 24 hours after exposure.
Treatments were allowed to dry overnight. USDA Petri Dish Method was used as initial screening protocol. Twenty, 4-6 day old female Aedes aegypti mosquitoes were exposed to each treatment for 3 minutes and then moved to a clean untreated white paper index card. Treatments were replicated a minimum of three times. Mosquito knockdown was evaluated at 3-5 minute intervals for the first hour. A small cotton ball soaked in sucrose solution was then added on the screen top of the petri-dish as a drinking source. Mortality was evaluated at 24 hours after exposure.
Treatments were allowed to dry overnight. USDA Petri Dish Method was used as initial screening protocol. Twenty, 4-6 day old female Aedes aegypti mosquitoes were exposed to each treatment for 3 minutes and then moved to a clean untreated white paper index card. Treatments were replicated a minimum of three times. Mosquito knockdown was evaluated at various intervals through 2 hours after exposure. A small cotton ball soaked in sucrose solution was then added on the screen top of the petri-dish as a drinking source. Mortality was evaluated at 24 hours after exposure.
Treatments were allowed to dry overnight. USDA Petri Dish Method was used as initial screening protocol. Twenty, 4-6 day old female Aedes aegypti mosquitoes were exposed to each treatment for 3 minutes and then moved to a clean untreated white paper index card. Treatments were replicated a minimum of three times. Mosquito knockdown was evaluated at various hourly intervals. […]

As to `CN1COCN(Cc2cnc(Cl)s2)/C1=N\[N+](=O)[O-]` [Thiamethoxam (0.01%)], in series [1], the “Average % Knockdown & Mortality after 15 min” value is 0%, the “Average % Knockdown & Mortality after 30 min” value is listed as 0%, the “Average % Knockdown & Mortality after 60 min” value was 0% and the “Average % Knockdown & Mortality after 2 hr” value is 9%. The “Average % Knockdown & Mortality after 20 hr” value in series [1] was determined as 71%. In series [2], the “Average % Mortality after 15 min” value is listed as 0%, the “Average % Mortality after 3 hr” value is on record as 19% and the “Average % Mortality after 21 hr” value is 100%. Further, in series [3], the “Average % Knockdown & Mortality after 30 min” value amounted to 13%, the “Average % Knockdown & Mortality after 60 min” value was 67%, the “Average % Knockdown & Mortality after 90 min” value is given as 87% and the “Average % Knockdown & Mortality after 3 hr” value is reported as 100%. Further, the “Average % Knockdown & Mortality after 24 hr” value in series [3] is listed as 100%. In addition, in the series with Aedes aegypti mosquito, the “Average % Knockdown & Mortality after 2 hr” value was determined as 0%, the “Average % Knockdown & Mortality after 3 hr” value was 0%, the “Average % Knockdown & Mortality after 7 hr” value is given as 0% and the “Average % Knockdown & Mortality after 24 hr” value was 0%.
For the molecule `CN1COCN(Cc2cnc(Cl)s2)/C1=N\[N+](=O)[O-]` [Thiamethoxam (0.1%)], in series [1], the “Average % Knockdown & Mortality after 15 min” value amounted to 0%, the “Average % Knockdown & Mortality after 30 min” value was 0%, the “Average % Knockdown & Mortality after 60 min” value is 0% and the “Average % Knockdown & Mortality after 2 hr” value was 3%. The “Average % Knockdown & Mortality after 20 hr” value in series [1] was found to be 33%. Besides, in series [2], the “Average % Mortality after 15 min” value was 12%, the “Average % Mortality after 3 hr” value turned out to be 46% and the “Average % Mortality after 21 hr” value worked out at 100%. In series [3], the “Average % Knockdown & Mortality after 30 min” value was 7%, the “Average % Knockdown & Mortality after 60 min” value was determined as 73%, the “Average % Knockdown & Mortality after 90 min” value is 93% and the “Average % Knockdown & Mortality after 3 hr” value is reported as 100%. In addition, in series [3], the “Average % Knockdown & Mortality after 24 hr” value is on record as 100%. Besides, in the series with Aedes aegypti mosquito, the “Average % Knockdown & Mortality after 2 hr” value was 0%, the “Average % Knockdown & Mortality after 3 hr” value is given as 0%, the “Average % Knockdown & Mortality after 7 hr” value is 0% and the “Average % Knockdown & Mortality after 24 hr” value was determined as 0%.
With `CN1COCN(Cc2cnc(Cl)s2)/C1=N\[N+](=O)[O-]` [Thiamethoxam (1%)], in series [1], the “Average % Knockdown & Mortality after 15 min” value worked out at 0%, the “Average % Knockdown & Mortality after 30 min” value worked out at 0%, the “Average % Knockdown & Mortality after 60 min” value turned out to be 0% and the “Average % Knockdown & Mortality after 2 hr” value was determined as 21%. In addition, the “Average % Knockdown & Mortality after 20 hr” value in series [1] worked out at 65%. In series [2], the “Average % Mortality after 15 min” value is 3%, the “Average % Mortality after 3 hr” value is on record as 34% and the “Average % Mortality after 21 hr” value is reported as 100%. For the same molecule, in series [3], the “Average % Knockdown & Mortality after 30 min” value is reported as 13%, the “Average % Knockdown & Mortality after 60 min” value amounted to 73%, the “Average % Knockdown & Mortality after 90 min” value is on record as 80% and the “Average % Knockdown & Mortality after 3 hr” value came out at 93%. Besides, in series [3], the “Average % Knockdown & Mortality after 24 hr” value came out at 100%. Moreover, in the series on Aedes aegypti mosquito, the “Average % Knockdown & Mortality after 2 hr” value was 2%, the “Average % Knockdown & Mortality after 3 hr” value stood at 2%, the “Average % Knockdown & Mortality after 7 hr” value is listed as 4% and the “Average % Knockdown & Mortality after 24 hr” value is 4%.

Values taken from patent publication US9028856B2, “Synergistic pesticide compositions” (priority 2008, dated 2015).
